Patent publication US9340510B2, “Tetrahydroisoquinoline derivatives, pharmaceutical compositions and uses thereof” (Boehringer Ingelheim International GmbH, priority 2014, dated 2016)

What follows are molecules tested against human ACC2 (Homo sapiens (Human), UniProt O00763) (assay: ACC2 assay: spectrophotometric 384 well assay (coupled lactate dehydrogenase/pyruvate kinase)). Conditions: hACC2 construct lacking the 128 N-terminal amino acids, 25° C., 340 nm.
Type: biochemical
Procedure: Spectrophotometric 384 Well Assay
Malonyl CoA formation by acetyl CoA carboxylases is stoichiometrically linked to the consumption of ATP. ACC2 activity is measured in a […] kinetic method measuring ADP generated during the ACC reaction using a coupled lactate dehydrogenase/pyruvate kinase reaction.
For biological testing, a human ACC2 construct which lacks the 128 amino acids at the N-terminus for increased solubility (nt 385-6966 in Genbank entry AJ575592) is cloned. The protein is then expressed in insect cells using a baculoviral expression system. Protein purification is performed by anion exchange.
All compounds are dissolved in dimethyl sulfoxide (DMSO) to a concentration of 10 mM.
Assay reactions are then carried out in 384-well plates, with hACC2 in an appropriate dilution and at final assay concentrations (f.c.) of 100 mM Tris (pH 7.5), 10 mM trisodium citrate, 25 mM KHCO3, 10 mM MgCl2, 0.5 mg/ml BSA, 3.75 mM reduced L-glutathione, 15 U/ml lactate dehydrogenase, 0.5 mM phosphoenolpyruvate, 15 U/ml pyruvate kinase, compounds at different concentrations at final DMSO concentrations of 1%.
The enzymatic reaction is then started by addition of a mixture of NADH, acetyl Coenzyme A (both […].) and ATP (500 uM f.c.). The decrease of the optical density (slope S) is then determined at 25° C. at a wavelength of 340 nm over 15 minutes in a spectrophotometric reader.
Each assay microtiter plate contains wells with vehicle instead of compound as controls for the non-inhibited enzyme (100% CTL; ‘HIGH’) and wells without acetyl-CoA as controls for non-specific NADH degradation (0% CTL; ‘LOW’).
The slope S is used for calculation of % CTL=(S(compound)−S(‘LOW’))/(S(‘HIGH’)−S(‘LOW’))*100. Compounds will give values between 100% CTL (no inhibition) and 0% CTL (complete inhibition).
For IC50 value determination, the sample slope in the presence of the test compound after subtraction of the low controls (S(compound)−S(‘LOW’)) are used.
An IC50 value is derived from the compound slopes at different dosages after subtraction of the low controls (S(compound)-S(‘LOW’)) by non-linear regression curve fitting (equation y=(A+((B−A)/(1+((C/x)^D))))).

Sequence of human ACC2 (O00763 129-2458): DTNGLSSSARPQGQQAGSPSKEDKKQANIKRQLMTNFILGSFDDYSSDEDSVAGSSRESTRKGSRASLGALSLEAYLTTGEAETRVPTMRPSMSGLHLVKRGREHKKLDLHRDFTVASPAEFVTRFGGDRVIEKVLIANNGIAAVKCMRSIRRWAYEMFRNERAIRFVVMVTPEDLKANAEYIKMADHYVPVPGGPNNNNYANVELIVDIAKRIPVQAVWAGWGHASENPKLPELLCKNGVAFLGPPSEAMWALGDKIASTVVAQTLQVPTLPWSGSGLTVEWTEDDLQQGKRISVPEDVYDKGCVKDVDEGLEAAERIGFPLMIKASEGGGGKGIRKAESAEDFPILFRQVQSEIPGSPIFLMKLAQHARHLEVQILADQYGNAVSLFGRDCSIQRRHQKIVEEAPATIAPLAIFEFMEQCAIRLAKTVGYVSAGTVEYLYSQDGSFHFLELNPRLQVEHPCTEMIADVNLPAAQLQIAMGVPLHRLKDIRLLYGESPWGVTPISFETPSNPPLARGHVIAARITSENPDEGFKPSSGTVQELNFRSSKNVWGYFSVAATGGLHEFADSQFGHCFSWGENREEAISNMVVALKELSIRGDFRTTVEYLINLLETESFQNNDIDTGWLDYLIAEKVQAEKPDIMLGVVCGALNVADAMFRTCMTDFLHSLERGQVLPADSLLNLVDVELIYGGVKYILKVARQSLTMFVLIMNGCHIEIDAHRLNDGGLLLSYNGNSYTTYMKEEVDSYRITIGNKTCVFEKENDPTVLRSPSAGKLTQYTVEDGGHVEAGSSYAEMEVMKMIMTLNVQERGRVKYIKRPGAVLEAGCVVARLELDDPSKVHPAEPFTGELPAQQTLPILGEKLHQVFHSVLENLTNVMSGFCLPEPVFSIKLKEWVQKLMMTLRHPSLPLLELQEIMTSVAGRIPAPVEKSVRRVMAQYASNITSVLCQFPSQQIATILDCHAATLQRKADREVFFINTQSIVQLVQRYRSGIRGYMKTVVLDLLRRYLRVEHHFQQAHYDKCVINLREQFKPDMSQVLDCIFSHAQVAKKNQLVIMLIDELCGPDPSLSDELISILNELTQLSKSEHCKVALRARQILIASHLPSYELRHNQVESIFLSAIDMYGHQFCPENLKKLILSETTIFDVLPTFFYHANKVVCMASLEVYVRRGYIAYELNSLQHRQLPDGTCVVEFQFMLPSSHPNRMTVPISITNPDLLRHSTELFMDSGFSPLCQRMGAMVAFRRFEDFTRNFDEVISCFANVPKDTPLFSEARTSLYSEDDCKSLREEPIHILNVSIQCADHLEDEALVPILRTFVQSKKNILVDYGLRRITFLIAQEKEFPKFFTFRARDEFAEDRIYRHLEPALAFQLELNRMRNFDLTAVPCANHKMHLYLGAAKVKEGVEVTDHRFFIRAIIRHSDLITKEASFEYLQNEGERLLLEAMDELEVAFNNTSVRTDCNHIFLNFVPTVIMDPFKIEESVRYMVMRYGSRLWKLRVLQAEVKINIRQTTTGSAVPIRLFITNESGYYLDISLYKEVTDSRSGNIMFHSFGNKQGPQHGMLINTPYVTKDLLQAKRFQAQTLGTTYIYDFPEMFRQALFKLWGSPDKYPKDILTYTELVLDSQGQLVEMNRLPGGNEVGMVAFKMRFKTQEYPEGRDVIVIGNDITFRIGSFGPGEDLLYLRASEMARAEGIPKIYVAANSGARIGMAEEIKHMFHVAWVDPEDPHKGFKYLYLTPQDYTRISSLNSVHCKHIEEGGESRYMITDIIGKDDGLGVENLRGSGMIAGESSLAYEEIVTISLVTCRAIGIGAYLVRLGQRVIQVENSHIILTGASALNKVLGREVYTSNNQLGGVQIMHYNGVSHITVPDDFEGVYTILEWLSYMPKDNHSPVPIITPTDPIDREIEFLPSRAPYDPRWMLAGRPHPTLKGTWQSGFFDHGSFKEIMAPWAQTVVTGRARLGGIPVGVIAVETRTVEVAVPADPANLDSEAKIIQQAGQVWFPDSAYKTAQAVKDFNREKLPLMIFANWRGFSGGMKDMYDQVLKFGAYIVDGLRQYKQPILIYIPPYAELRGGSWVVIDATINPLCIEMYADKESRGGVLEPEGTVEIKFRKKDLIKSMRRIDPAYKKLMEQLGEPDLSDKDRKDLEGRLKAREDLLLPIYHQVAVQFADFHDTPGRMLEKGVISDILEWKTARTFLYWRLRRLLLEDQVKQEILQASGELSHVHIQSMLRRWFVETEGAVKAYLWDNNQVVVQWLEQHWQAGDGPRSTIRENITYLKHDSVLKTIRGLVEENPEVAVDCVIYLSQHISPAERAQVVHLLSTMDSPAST

In order of falling IC50:
1. COc1ccc2c(c1F)CCN(Cc1ccc([C@H](C)NC(C)=O)cc1)C2C (stereo partly shown) [Example 1.095]  494 nM
2. C[C@H](NC(=O)CC(=O)N(C)C)c1ccc(CN2CCc3cc(OCC4CC4)ccc3C2)cc1 [Example 2.03]  459 nM
3. C[C@H](NC(=O)CC#N)c1ccc(CN2CC(=O)c3cc(OCC4CC4(F)F)ccc3C2)cc1 (stereo partly shown) [Example 2.04]  450 nM
4. CCOc1ccc2c(c1OC)CCN(Cc1ccc([C@H](C)NC(C)=O)cc1)C2C (stereo partly shown) [Example 1.083]  449 nM
5. C[C@H](NC(=O)CC(=O)N(C)C)c1ccc(CN2CCc3cc(OC[C@@H]4CC4(F)F)ccc3C2)cc1 [Example 2.031]  447 nM
6. CC(=O)N[C@@H](C)c1ccc(CN2Cc3ccc(OC4CCC4)cc3C(O)C2)cc1 (stereo partly shown) [Example 1.099]  421 nM
7. COc1ccc2c(c1F)CCN(Cc1ccc([C@H](C)NC(C)=O)cc1)C2 [Example 1.080]  396 nM
8. CC(=O)N[C@@H](C)c1ccc(CN2Cc3ccc(OC(C)C)cc3C(O)C2)cc1 (stereo partly shown) [Example 1.098]  392 nM
9. COc1c(OCC(F)F)ccc2c1CCN(Cc1ccc([C@H](C)NC(C)=O)cc1)C2 [Example 1.071]  340 nM
10. C[C@H](NC(=O)C1CCC(=O)N1)c1ccc(CN2CCc3cc(OC[C@@H]4CC4(F)F)ccc3C2)cc1 (stereo partly shown) [Example 2.029]  329 nM
11. CC(=O)N[C@@H](C)c1ccc(CN2Cc3ccc(OCC4CC4)cc3C(O)C2)cc1 (stereo partly shown) [Example 1.096]  315 nM
12. C[C@H](NC(=O)C1CC1)c1ccc(CN2CCc3cc(OCCCF)ccc3C2)cc1 [Example 2.016]  299 nM
13. COC1CN(Cc2ccc([C@H](C)NC(C)=O)cc2)Cc2ccc(OCC3CC3)cc21 (stereo partly shown) [Example 1.094]  296 nM
14. COc1c(OC2CCC2)ccc2c1CCN(Cc1ccc([C@H](C)NC(C)=O)cc1)C2C (stereo partly shown) [Example 1.085]  280 nM
15. COc1c(OCC2CC2(F)F)ccc2c1CCN(Cc1ccc([C@H](C)NC(C)=O)cc1)C2C (stereo partly shown) [Example 1.084]  263 nM
16. C[C@H](NC(=O)C1CC1)c1ccc(CN2CCc3c(Br)cccc3C2)cc1 [Example 2.009]  249 nM
17. COc1cccc2c1CCN(Cc1ccc([C@H](C)NC(=O)C3CC3)cc1)C2 [Example 2.002]  237 nM
18. CC(=O)N[C@@H](C)c1ccc(CN2CCc3cc(Cl)ccc3C2)cc1 [Example 1.081]  232 nM
19. COc1c(OCC2CC2)ccc2c1CCN(Cc1ccc([C@H](C)NC(C)=O)cc1)C2C (stereo partly shown) [Example 1.086]  227 nM
20. C[C@H](NC(=O)C1(O)CC1)c1ccc(CN2CCc3cc(OC[C@@H]4CC4(F)F)ccc3C2)cc1 [Example 2.028]  217 nM
21. CCC(=O)N[C@@H](C)c1ccc(CN2CCc3c(Br)cccc3C2)cc1 [Example 2.011]  194 nM
22. COc1c(OCC2CC(F)(F)C2)ccc2c1CCN(Cc1ccc([C@H](C)NC(C)=O)cc1)C2C (stereo partly shown) [Example 1.087]  189 nM
23. COc1cccc2c1CCN(Cc1ccc([C@H](C)NC(=O)c3cn[nH]c3)cc1)C2 [Example 2.004]  184 nM
24. C[C@H](NC(=O)c1cncs1)c1ccc(CN2CCc3c(Br)cccc3C2)cc1 [Example 2.010]  179 nM
25. CC(O)C(=O)N[C@@H](C)c1ccc(CN2CCc3cc(OCC4CC4)ccc3C2)cc1 (stereo partly shown) [Example 2.021]  168 nM
26. CCC(=O)N[C@@H](C)c1ccc(CN2CCc3c(cccc3OC3CCC3)C2)cc1 [Example 2.013]  166 nM
27. COc1cccc2c1CCN(Cc1ccc([C@H](C)NC(=O)c3sc(NC(C)=O)nc3C)cc1)C2 [Example 2.003]  157 nM
28. C[C@H](NC(=O)C1(O)CC1)c1ccc(CN2CCc3cc(OCC4CC4)ccc3C2)cc1 [Example 2.024]  150 nM
29. COc1c(OC2CCC2)ccc2c1CCN(Cc1ccc([C@H](C)NC(C)=O)cc1)C2 [Example 1.070]  145 nM
30. C[C@H](NC(=O)c1cncs1)c1ccc(CN2CCc3c(cccc3OC3CCC3)C2)cc1 [Example 2.014]  144 nM
31. COc1c(OCCC(F)F)ccc2c1CCN(Cc1ccc([C@H](C)NC(C)=O)cc1)C2 [Example 1.072]  141 nM
32. CC(=O)N[C@@H](C)c1ccc(CN2CCc3c(ccc(OC(C)C)c3Br)C2)cc1 [Example 1.079]  136 nM
33. COc1cccc2c1CCN(Cc1ccc([C@H](C)NC(=O)c3cncs3)cc1)C2 [Example 2.001, Thiazole-5-carboxylic acid {(S)-1-[4-(5-methoxy-3,4-dihydro-1H-isoquinolin-2-ylmethyl)-phenyl]-ethyl}-amide]  135 nM
34. CC(=O)N[C@@H](C)c1ccc(CN2Cc3ccc(OCC4CC4(F)F)cc3C(O)C2)cc1 (stereo partly shown) [Example 1.091]  130 nM
35. CC(O)C(=O)N[C@@H](C)c1ccc(CN2CCc3cc(OC[C@@H]4CC4(F)F)ccc3C2)cc1 (stereo partly shown) [Example 2.027]  130 nM
36. CC(=O)Nc1nc(C)c(C(=O)N[C@@H](C)c2ccc(CN3CCc4c(cccc4C(F)(F)F)C3)cc2)s1 [Example 2.005]  105 nM
37. C[C@H](NC(=O)C1CC1)c1ccc(CN2CCc3c(cccc3C(F)(F)F)C2)cc1 [Example 2.007]  104 nM
38. C[C@H](NC(=O)c1cn[nH]c1)c1ccc(CN2CCc3c(cccc3C(F)(F)F)C2)cc1 [Example 2.008]  100 nM
39. CC(=O)Nc1nc(C)c(C(=O)N[C@@H](C)c2ccc(CN3CCc4c(cccc4OC4CCC4)C3)cc2)s1 [Example 2.012]  97 nM
40. CC(=O)N[C@@H](C)c1ccc(CN2CC(=O)c3cc(OCc4ccccc4)ccc3C2)cc1 [Example 1.089]  89 nM
41. C[C@H](NC(=O)CO)c1ccc(CN2CCc3cc(OC[C@@H]4CC4(F)F)ccc3C2)cc1 [Example 2.025]  89 nM
42. C[C@H](NC(=O)c1cncs1)c1ccc(CN2CCc3c(cccc3C(F)(F)F)C2)cc1 [Example 2.006]  85 nM
43. C[C@H](NC(=O)Cc1cncnc1)c1ccc(CN2CCc3cc(OCC4CC4)ccc3C2)cc1 [Example 2.022]  82 nM
44. C[C@H](NC(=O)CO)c1ccc(CN2CCc3cc(OCC4CC4)ccc3C2)cc1 [Example 2.023]  82 nM
45. C[C@H](NC(=O)Cc1cncnc1)c1ccc(CN2CCc3cc(OC[C@@H]4CC4(F)F)ccc3C2)cc1 [Example 2.026]  81 nM
46. CCCOc1ccc2c(c1OC)CCN(Cc1ccc([C@H](C)NC(C)=O)cc1)C2 [Example 1.074]  79 nM
47. COc1c(OCC2CC2)ccc2c1CCN(Cc1ccc([C@H](C)NC(C)=O)cc1)C2 [Example 1.076]  68 nM
48. CC(=O)N[C@@H](C)c1ccc(CN2CCc3c(ccc(Cl)c3Cl)C2)cc1 [Example 1.078]  67 nM
49. CC(=O)N[C@@H](C)c1ccc(CN2CC(=O)c3cc(OCC4CC4)ccc3C2)cc1 [Example 1.090]  65 nM
50. CC(C)COc1ccc2c(c1)CCN(Cc1ccc([C@H](C)NC(=O)C3CC3)cc1)C2 [Example 2.019]  57 nM
51. COc1c(OCC2CC(F)(F)C2)ccc2c1CCN(Cc1ccc([C@H](C)NC(C)=O)cc1)C2 [Example 1.075]  55 nM
52. CC(=O)N[C@@H](C)c1ccc(CN2Cc3ccc(OCC4CCC4)cc3C(O)C2)cc1 (stereo partly shown) [Example 1.101]  55 nM
53. C[C@H](NC(=O)C1CC1)c1ccc(CN2CCc3cc(OCCC4CC4)ccc3C2)cc1 [Example 2.018]  47 nM
54. COc1c(OCC2CCC2)ccc2c1CCN(Cc1ccc([C@H](C)NC(C)=O)cc1)C2 [Example 1.073]  40 nM
55. COc1c(OCCC2CC2)ccc2c1CCN(Cc1ccc([C@H](C)NC(C)=O)cc1)C2 [Example 1.077]  40 nM
56. CC(=O)N[C@@H](C)c1ccc(CN2CCc3cc(OCC4CC4(F)F)ccc3C2C)cc1 (stereo partly shown) [Example 1.082]  39 nM
57. CC(=O)N[C@@H](C)c1ccc(CN2Cc3ccc(OCC4CC4)cc3C(F)(F)C2)cc1 [Example 1.097]  38 nM
58. C[C@H](NC(=O)C1CC1)c1ccc(CN2CCc3cc(OCC4CC(F)(F)C4)ccc3C2)cc1 [Example 2.015]  38 nM
59. C[C@H](NC(=O)C1CC1)c1ccc(CN2CCc3cc(OCC4CCC4)ccc3C2)cc1 [Example 2.017]  38 nM
60. CC(=O)N[C@@H](C)c1ccc(CN2Cc3ccc(OC(C)C)cc3C(F)C2)cc1 (stereo partly shown) [Example 1.100]  30 nM
61. CC(=O)Nc1nc(C)c(C(=O)N[C@@H](C)c2ccc(CN3CCc4cc(OCC5CC5(F)F)ccc4C3)cc2)s1 (stereo partly shown) [Example 2.020]  28 nM
62. CC(=O)N[C@@H](C)c1ccc(CN2Cc3ccc(OCC4CC4)cc3C(F)C2)cc1 (stereo partly shown) [Example 1.093]  20 nM
63. CC(=O)N[C@@H](C)c1ccc(CN2Cc3ccc(OCC4CC4(F)F)cc3C(F)C2)cc1 (stereo partly shown) [Example 1.092]  16 nM
64. CC(=O)N[C@@H](C)c1ccc(CN2CCc3cc(OCC4CC4)ccc3C2)cc1 [Example 1.088]  12 nM
